Measured values published in patent US7928098B2, “Therapeutic and/or preventive agents for a sleep disorder” (Kyowa Hakko Kirin Co., Ltd., priority 2005, dated 2011).

system: not given; test: not given; conditions: not given

melting point	SMILES
151 to 153 °C	CC1(O)CCN(CC(=O)Nc2nc(-c3ccco3)c(C(=O)C3CCOCC3)s2)CC1 [Compound 451, N-[4-(2-Furyl)-5-(tetrahydropyran-4-ylcarbonyl)thiazol-2-yl]-2-(4-hydroxy-4-methylpiperidino)acetamide]
183 to 184 °C	O=C(CN1CCC(N2CCCC2)CC1)Nc1nc(-c2ccco2)c(C(=O)C2CCOCC2)s1 [Compound 456, N-[4-(2-Furyl)-5-(tetrahydropyran-4-ylcarbonyl)thiazol-2-yl]-2-[4-(1-pyrrolidinyl)piperidino]acetamide]
177 to 179 °C	O=C(CN1CCC(N2CCCCC2)CC1)Nc1nc(-c2ccco2)c(C(=O)C2CCOCC2)s1 [Compound 457, N-[4-(2-Furyl)-5-(tetrahydropyran-4-ylcarbonyl)thiazol-2-yl]-2-(4-piperidinopiperidino)acetamide]
193 to 195 °C	O=C(CN1CCC(N2CCOCC2)CC1)Nc1nc(-c2ccco2)c(C(=O)C2CCOCC2)s1 [Compound 458, N-[4-(2-Furyl)-5-(tetrahydropyran-4-ylcarbonyl)thiazol-2-yl]-2-(4-morpholinopiperidino)acetamide]
186 to 187 °C	O=C(CN1CCC2(CC1)OCCO2)Nc1nc(-c2ccco2)c(C(=O)C2CCOCC2)s1 [Compound 459, 2-(1,4-Dioxa-8-azaspiro[4.5]decan-8-yl)-N-[4-(2-furyl)-5-(tetrahydropyran-4-ylcarbonyl)thiazol-2-yl]acetamide]
106 to 112 °C	CN1CCN(CC(=O)Nc2nc(-c3ccco3)c(C(=O)C3CCOCC3)s2)CC1 [Compound 467, N-[4-(2-Furyl)-5-(tetrahydropyran-4-ylcarbonyl)thiazol-2-yl]-2-(4-methylpiperazin-1-yl)acetamide]
106 to 108 °C	CC(C)(O)CN1CCN(CC(=O)Nc2nc(-c3ccco3)c(C(=O)C3CCOCC3)s2)CC1 [Compound 470, N-[4-(2-Furyl)-5-(tetrahydropyran-4-ylcarbonyl)thiazol-2-yl]-2-[4-(2-hydroxy-2-methylpropyl)piperazin-1-yl]acetamide]
105 to 107 °C	COC(C)(C)CN1CCN(CC(=O)Nc2nc(-c3ccco3)c(C(=O)C3CCOCC3)s2)CC1 [Compound 471, N-[4-(2-Furyl)-5-(tetrahydropyran-4-ylcarbonyl)thiazol-2-yl]-2-[4-(2-methoxy-2-methylpropyl)piperazin-1-yl]acetamide]
155 to 157 °C	COC1(CN2CCN(CC(=O)Nc3nc(-c4ccco4)c(C(=O)C4CCOCC4)s3)CC2)CC1 [Compound 472, N-[4-(2-Furyl)-5-(tetrahydropyran-4-ylcarbonyl)thiazol-2-yl]-2-{4-[(1-methoxycyclopropyl)methyl]piperazin-1-yl}acetamide]
94 to 96 °C	CN1CCCN(CC(=O)Nc2nc(-c3ccco3)c(C(=O)C3CCOCC3)s2)CC1 [Compound 481, N-[4-(2-Furyl)-5-(tetrahydropyran-4-ylcarbonyl)thiazol-2-yl]-2-(4-methyl-1,4-diazepan-1-yl)acetamide]
168 to 170 °C	O=C(CNC12CC3CC(CC(C3)C1)C2)Nc1nc(-c2ccco2)c(C(=O)C2CCOCC2)s1 [Compound 482, N-[4-(2-Furyl)-5-(tetrahydropyran-4-ylcarbonyl)thiazol-2-yl]-2-(adamantan-1-ylamino)acetamide]
176 to 178 °C	O=C(CNC12CC3CC(CC(O)(C3)C1)C2)Nc1nc(-c2ccco2)c(C(=O)C2CCOCC2)s1 [Compound 483, N-[4-(2-Furyl)-5-(tetrahydropyran-4-ylcarbonyl)thiazol-2-yl]-2-(3-hydroxyadamantan-1-ylamino)acetamide]
152 to 153 °C	CCOC(=O)Nc1nc(-c2ccco2)c(C(=O)C2CCOCC2)s1 [Compound 486, Ethyl N-[4-(2-furyl)-5-(tetrahydropyran-4-ylcarbonyl)thiazol-2-yl]carbamate]
238 to 240 °C	Cc1ncc(C(=O)Nc2nc(-c3ccco3)c(C(=O)C3CCSCC3)s2)cn1 [Compound 494, N-[4-(2-Furyl)-5-(tetrahydrothiopyran-4-ylcarbonyl)thiazol-2-yl]-2-methylpyrimidine-5-carboxamide]
178 to 180 °C	COc1ccc(-c2c[nH]c(-c3nc(-c4ccco4)c(C(=O)C4CCOCC4)s3)n2)cc1 [Compound 520, 4-(2-Furyl)-2-[4-(4-methoxyphenyl)imidazol-2-yl]thiazol-5-yl tetrahydropyran-4-yl ketone]

Second part, the compound before the results:

SMILES	melting point
O=C(CC1CCOCC1)Nc1nc(-c2ccco2)c(C(=O)C2CCOCC2)s1 [Compound 430, N-[4-(2-Furyl)-5-(tetrahydropyran-4-ylcarbonyl)thiazol-2-yl]-2-(tetrahydropyran-4-yl)acetamide]	206 to 209 °C
O=C(Cc1ccccc1)Nc1nc(-c2ccco2)c(C(=O)C2CCOCC2)s1 [Compound 431, N-[4-(2-Furyl)-5-(tetrahydropyran-4-ylcarbonyl)thiazol-2-yl]-2-phenylacetamide]	140 to 142 °C
O=C(CCc1ccccc1)Nc1nc(-c2ccco2)c(C(=O)C2CCOCC2)s1 [Compound 432, N-[4-(2-Furyl)-5-(tetrahydropyran-4-ylcarbonyl)thiazol-2-yl]-3-phenylpropanamide]	161 to 164 °C
O=C(C=Cc1ccccc1)Nc1nc(-c2ccco2)c(C(=O)C2CCOCC2)s1 [Compound 433, N-[4-(2-Furyl)-5-(tetrahydropyran-4-ylcarbonyl)thiazol-2-yl]-3-phenylacrylamide]	253 to 256 °C
O=C(COc1ccccc1)Nc1nc(-c2ccco2)c(C(=O)C2CCOCC2)s1 [Compound 434, N-[4-(2-Furyl)-5-(tetrahydropyran-4-ylcarbonyl)thiazol-2-yl]-2-phenoxyacetamide]	148 to 150 °C
COCC(=O)Nc1nc(-c2ccco2)c(C(=O)C2CCOCC2)s1 [Compound 435, N-[4-(2-Furyl)-5-(tetrahydropyran-4-ylcarbonyl)thiazol-2-yl]-2-methoxyacetamide]	148 to 149 °C
CCOCC(=O)Nc1nc(-c2ccco2)c(C(=O)C2CCOCC2)s1 [Compound 437, 2-Ethoxy-N-[4-(2-furyl)-5-(tetrahydropyran-4-ylcarbonyl)-thiazol-2-yl]acetamide]	121 to 126 °C
CN(C)CC(=O)Nc1nc(-c2ccco2)c(C(=O)C2CCOCC2)s1 [Compound 438, 2-(Dimethylamino)-N-[4-(2-furyl)-5-(tetrahydropyran-4-ylcarbonyl)thiazol-2-yl]acetamide]	129 to 130 °C
COCCN(C)CC(=O)Nc1nc(-c2ccco2)c(C(=O)C2CCOCC2)s1 [Compound 439, N-[4-(2-Furyl)-5-(tetrahydropyran-4-ylcarbonyl)thiazol-2-yl]-2-[N-(2-methoxyethyl)-N-methylamino]acetamide]	103 to 105 °C
O=C(CN1CCCC1)Nc1nc(-c2ccco2)c(C(=O)C2CCOCC2)s1 [Compound 441, N-[4-(2-Furyl)-5-(tetrahydropyran-4-ylcarbonyl)thiazol-2-yl]-2-(1-pyrrolidinyl)acetamide]	115 to 117 °C
COC[C@H]1CCCN1CC(=O)Nc1nc(-c2ccco2)c(C(=O)C2CCOCC2)s1 [Compound 442, N-[4-(2-Furyl)-5-(tetrahydropyran-4-ylcarbonyl)thiazol-2-yl]-2-[(2R)-2-(methoxymethyl)pyrrolidin-1-yl]acetamide]	103 to 104 °C
COC[C@@H]1CCCN1CC(=O)Nc1nc(-c2ccco2)c(C(=O)C2CCOCC2)s1 [Compound 443, N-[4-(2-Furyl)-5-(tetrahydropyran-4-ylcarbonyl)thiazol-2-yl]-2-[(2S)-2-(methoxymethyl)pyrrolidin-1-yl]acetamide]	102 to 103 °C
O=C(CN1CCCCC1)Nc1nc(-c2ccco2)c(C(=O)C2CCOCC2)s1 [Compound 447, N-[4-(2-Furyl)-5-(tetrahydropyran-4-ylcarbonyl)thiazol-2-yl]-2-piperidinoacetamide]	146 to 147 °C
O=C(CN1CCC(O)CC1)Nc1nc(-c2ccco2)c(C(=O)C2CCOCC2)s1 [Compound 448, N-[4-(2-Furyl)-5-(tetrahydropyran-4-ylcarbonyl)thiazol-2-yl]-2-(4-hydroxypiperidino)acetamide]	178 to 180 °C
COC1CCN(CC(=O)Nc2nc(-c3ccco3)c(C(=O)C3CCOCC3)s2)CC1 [Compound 450, N-[4-(2-Furyl)-5-(tetrahydropyran-4-ylcarbonyl)thiazol-2-yl]-2-(4-methoxypiperidino)acetamide]	109 to 111 °C

system: ddY male mice; test: Effect on pentobarbital sodium-induced sleeping time (loss of righting reflex); format: in vivo; conditions: Table 5-1, groups of seven, test compound 10 mg/kg p.o. one hour before pentobarbital-Na 25 mg/kg s.c., controls 52.12 ± 5.20 (r5) and 35.56 ± 5.21 (r11)
Description: The test was conducted to examine influence of Compound (I) of the present invention on pentobarbital sodium-induced sleeping time, according to the method of Iyakuhin no Kaihatsu, Vol. 9, Iyakuhin no Tansaku I, “antihypnotic”, p. 220-226, Hirokawa Shoten.
For the test, ddY male mice (19-21 g body weight; Japan SLC, Inc.) were used. All test compounds were used by suspending in distilled water (Otsuka Pharmaceutical Factory, Inc.) containing 0.5 volume/weight % methylcellulose (0.5% MC: Wako Pure Chemical Industries, Ltd.). A volume of 0.1 mL was administered per 10 g body weight of mice.
Groups of seven mice were used. To the control groups were orally administrated 0.5% MC, whereas a suspension of the test compound was orally administered to the test compound administered groups. One hour after the administration, pentobarbital sodium (pentobarbital-Na: Tokyo Chemical Industry Co., Ltd., 25 mg/kg) was administered subcutaneously. Mouse placed in a recumbent position, the mouse immediately returns to a proper upright position (this is known as righting reflex). However, the administration of pentobarbital sodium eliminated the righting reflex in the control groups. The time period in which the administration of […] eliminated the righting reflex was regarded as a sleeping time. By a measurement of time disappearing righting reflex immediately after the administration, the sleeping time was determined.

SMILES	Sleeping time (min) Mean value ± standard deviation
O=C(Nc1nc(-c2ccco2)c(-c2ccncc2)s1)c1ccncc1 [Compound 1, N-[4-(2-Furyl)-5-(4-pyridyl)thiazol-2-yl]pyridine-4-carboxamide]	15.58 ± 8.50 min
O=C(Nc1nc(-c2ccco2)c(-c2ccncc2)s1)c1cccnc1 [Compound 5, N-[4-(2-Furyl)-5-(4-pyridyl)thiazol-2-yl]pyridine-3-carboxamide]	0.82 ± 0.82 min
O=C(Nc1nc(-c2ccco2)c(-c2ccncc2)s1)c1ccco1 [Compound 7, N-[4-(2-Furyl)-5-(4-pyridyl)thiazol-2-yl]furan-2-carboxamide]	6.38 ± 4.58 min
